Tests used:
[1] = Metabolite obtained from urine of rats fed with Compound 1; type: in vivo; settings: urine samples of rats fed with Compound 1
Protocol: Compound 27 was determined to be 4-hydroxy-2,3-dimethoxy-6-methyl-5-(3-methyl-2-hexenoic acid)cyclohex-2-enone with molecular weight of 312 (C16 H24O6). Compound 25 which was determined as 2,3-dimethoxy-5-methyl-6-((2E,6E)-3,7,11-trimethyldodeca-2,6,10-trienyl)cyclohexa-2,5-diene-1,4-dione (molecular weight of 386.52, C24 H34 O4), was obtained from the purification process.

[2] = Outside-in animal model (OVA-sensitized mice): body weight and clinical signs; type: in vivo; settings: oral doses
Protocol: BALC/c female rat in 6-8-week old is used. Each group has 6-8 rats. Blood sample was taken from the cheek of rat before sensitization. On day 1 and day 8, mice were injected intraperitoneally with 50 μg/mice of OVA-aluminum hydroxide (1:1 v/v). The mice were epicutaneously sensitized with OVA patches on day 15. OVA (100 μg) prepared in PBS was contained in a 2×2-cm patch of sterile gauze that was placed on the shaved backs of mice and secured to the skin with 3 M Tegader film followed by 3 M Coban tape to secure the gauze. After 3 days, the gauze was removed and reapplied. The procedure was repeated three times. Day 27, all the mice in the study was sacrificed and examined.
days 1 and 8 were injected OVA (sensitization), day 15 applied OVA gauze for 3 days (challenge) and rested one day. The application of OVA gauze procedure was repeated 3 times. Starting on day 14, the mice in the group were fed water.
Same procedure as group O except the mice were fed low dose (5 mg/kg BW) of exemplary compound 1.
Same procedure as group O except the mice were fed medium dose (15 mg/kg BW) of exemplary compound 1.
Same procedure as group O except the mice were fed high dose (45 mg/kg BW) of exemplary compound 1.

[3] = all treatment groups, through the study period

Compound | metabolite found in urine [1] | body weight change between all treatment groups ([2]; FIG. 1) | loss in body weight [2, 3] | observed clinical signs [2, 3]
COC1=C(OC)C(O)C(C/C=C(\C)CCC(=O)O)C(C)C1=O (stereo not shown) [Compound 27] | a metabolite of compound 1 |  |  | 
COC1=C(OC)C(O)C(C/C=C(\C)CC/C=C(\C)CCC=C(C)C)C(C)C1=O (stereo not shown) [Compound 1, 4-hydroxy-2,3-dimethoxy-6-methyl-5-(3,7,11-trimethyldodeca-2,6,10-trienyl)cyclohex-2-enone] |  | no significant difference | did not lead to any loss in body weight | did not lead to any loss in body weight or any observed clinical signs

From patent US11364209B2, “Methods and compositions for treating atopic dermatitis” (Golden Biotechnology Corporation, priority 2016, dated 2022)
